US20100056791A1, “Pyrazolopyridine carboxamide derivative and phosphodiesterase (pde) inhibitor containing the same” (priority 2006, published 2010)

Tests used:
[1] = test system: histamine-induced bronchoconstriction; test: Histamine-induced airway contraction reaction in guinea pigs; type: in vivo; conditions: Cavia porcellus, iv, 0.5 min, i.v., 30 seconds after administration, read-out: Inhibition ratio; for inhibition in vivo at 0.3 mg/kg: 0.3 mg/kg administration (results in brackets); for inhibition in vivo at 0.1 mg/kg: 0.1 mg/kg administration (not in brackets)
Protocol: Guinea pigs were anesthetized with pentobarbital (30 mg/kg, i.p.). A cannula for intravenous administration, a cannula for collecting blood and measuring blood pressure, and a tracheal cannula were inserted into the left external jugular vein, right internal carotid artery, and trachea, respectively. The guinea pigs were maintained on artificial respiration under the conditions of 60 times/min and 10 mL/kg/stroke. The airflow from the side branch of the tracheal cannula was measured by a bronchospasm transducer (Ugo-Basile) and recorded on a computer via Power Lab (ADInstruments Japan). The guinea pigs were immobilized with gallamine (10 mg/kg, i.v.), and histamine was administered at 10-minute intervals (12.5 μg/kg, i.v.). […] We examined the inhibitory action of test compounds on histamine-induced bronchoconstriction 30 seconds after compounds administration. Bronchoconstriction was recorded as the amount of airflow, and the results were represented by the ratio of the maximum value of the histamine-induced airflow 30 seconds after the administration to the maximum value of the airflow before the administration. When the inhibition ratio≧90%, the results were represented by “+++.” When 90%>the inhibition ratio≧70%, the results were represented by “++.” When 70%>the inhibition ratio≧30%, the results were represented by “+.” The results shown in brackets are for 0.3 mg/kg administration, and the other results are for 0.1 mg/kg administration.

[2] = target: T1, PDE4B catalytic domain (PDE4Bcat) (Homo sapiens, UniProt Q07343); test: Phosphodiesterase inhibitory activity ([3H]cAMP breakdown, recombinant PDE4Bcat); type: biochemical; conditions: 30° C. 20 minutes, read-out: IC50(μmol/L) PDE4
T1 construct: The cDNA of PDE4B catalytic domain (hereinafter abbreviated as Cat) was isolated from human RNA by RT-PCR; made in house; host or cells: Sf9 insect cells (baculovirus, Gateway / Bac-to-Bac)
Excerpt: The cDNA of PDE4B catalytic domain (hereinafter abbreviated as Cat) was isolated from human RNA by RT-PCR. The isolated cDNA fragments were inserted into Sf9 insect cells using Gateway system (product of Invitrogen Corporation) and Bac-to-Bac (registered trademark) Baculovirus Expression system (product of Invitrogen Corporation) to express a target PDE protein. The recombinant PDE4Bcat was purified from the culture supernatants or cell extracts of Sf9 cells expressing high levels of the PDE protein by ion exchange chromatography and was used for the following experiments.
A 4 mmol/L solution of each test compound was serially diluted four-fold with a 15% DMSO solution to prepare solutions with concentrations of 15 nmol/L to 4 mmol/L (the final concentrations used in the experiments were 1.5 nmol/L to 400 μmol/L). 10 μL of the prepared test compound solutions, [3H] cAMP diluted with a buffer solution (40 mmol/L Tris-HCl (pH: 7.4), 10 mmol/L MgCl2), and 40 μL of the recombinant human PDE protein (2×10^−6 units, 1 unit is defined as the amount of PDE that breaks down 1 μmol/L of cAMP in one minute under the conditions of a pH of 7.5 and 30° C.) were added to a 96-well plate. The mixtures were reacted at 30° C. for 20 minutes. Then, the resultant mixtures were reacted at 65° C. for 2 minutes. Subsequently, 25 μL of 1 mg/mL5′-nucleotidase (Crotalus atrox venom, product of Sigma) was added to the mixtures, and the mixtures were reacted at 30° C. for 10 minutes. After completion of the reaction, 200 μL of a solution of Dowex (300 mg/mL Dowex 1×8-400 (product of Sigma Aldrich), 33% ethanol) was added to the mixtures, and the mixtures were shaken at 4° C. for 20 minutes. Subsequently, 200 μL of MicroScint 20 (product of Packard) was added to the mixtures, and measurement was performed using a scintillation counter (Topcount, product of Packard). IC50 values were calculated using Graph Pad Prism v3.03 (product of GraphPad Software). When […], the results were represented by “+.” When 0.1 μmol/L>the IC50 value, the results were represented by “++.”

T1 sequence (Q07343 330-659 limits assumed): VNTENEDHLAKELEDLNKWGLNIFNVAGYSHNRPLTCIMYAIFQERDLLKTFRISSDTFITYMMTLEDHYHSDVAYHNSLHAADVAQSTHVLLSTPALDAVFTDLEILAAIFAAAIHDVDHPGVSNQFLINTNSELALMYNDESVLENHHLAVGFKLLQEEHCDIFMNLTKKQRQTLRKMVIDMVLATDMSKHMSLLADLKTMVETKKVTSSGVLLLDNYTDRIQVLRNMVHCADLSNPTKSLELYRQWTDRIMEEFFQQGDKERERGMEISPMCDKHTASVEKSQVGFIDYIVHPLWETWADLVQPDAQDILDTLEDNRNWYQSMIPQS

Compound | IC50 [2] [µmol/L] | inhibition in vivo at 0.3 mg/kg [1] [%] | inhibition in vivo at 0.1 mg/kg [1] [%]
COc1ccc(C(=O)Nc2c(Cl)cc(Cl)cc2Cl)c2cc(C(F)(F)F)nn12 [Example 18, 7-Methoxy-2-trifluoromethylpyrazolo[1,5-a]pyridine-4-carboxylic acid (2,4,6-trichlorophenyl)amide] | 0.1 to 10 |  | 
COc1ccc(C(=O)Nc2c(Cl)cncc2Cl)c2cc(C(C)C)nn12 [Example 32, 2-Isopropyl-7-methoxypyrazolo[1,5-a]pyridine-4-carboxylic acid (3,5-dichloropyridin-4-yl)amide] | 0.1 to 10 |  | 70 to 90
CCc1cc2c(C(=O)Nc3c(Cl)cncc3Cl)cccn2n1 [Example 48, 2-Ethylpyrazolo[1,5-a]pyridine-4-carboxylic acid (3,5-dichloropyridin-4-yl)amide] | 0.1 to 10 |  | 
COc1ccc(C(=O)Nc2c(Cl)cncc2Cl)c2cc(C=O)nn12 [Example 78, 2-Formyl-7-methoxypyrazolo[1,5-a]pyridine-4-carboxylic acid (3,5-dichloropyridin-4-yl)amide] | < 0.1 | 70 to 90 | 
COc1ccc(C(=O)Nc2c(Cl)cncc2Cl)c2cc(C(C)O)nn12 (stereo not drawn) [Example 79, 2-(1-Hydroxyethyl)-7-methoxypyrazolo[1,5-a]pyridine-4-carboxyl ic acid (3,5-dichloropyridin-4-yl)amide] | < 0.1 |  | 30 to 70
COc1ccc(C(=O)Nc2c(Cl)cncc2Cl)c2cc(C(C)=O)nn12 [Example 80, 2-Acetyl-7-methoxypyrazolo[1,5-a]pyridine-4-carboxylic acid (3,5-dichloropyridin-4-yl)amide] | < 0.1 |  | 30 to 70
COc1ccc(C(=O)Nc2c(Cl)cncc2Cl)c2cc(C(=O)O)nn12 [Example 81, 4-(3,5-Dichloropyridin-4-ylcarbamoyl)-7-methoxypyrazolo[1,5-a]pyridine-2-carboxylic acid] | 0.1 to 10 |  | 
COc1ccc(C(=O)Nc2c(Cl)cncc2Cl)c2cc(C=NO)nn12 [Example 82, 2-(Hydroxyiminomethy)-7-methoxypyrazolo[1,5-a]pyridine-4-carboxylic acid (3,5-dichloropyridin-4-yl)amide] | < 0.1 |  | 70 to 90
COc1ccc(C(=O)Nc2c(Cl)cncc2Cl)c2cc(C#N)nn12 [Example 83, 2-Cyano-7-methoxypyrazolo[1,5-a]pyridine-4-carboxylic acid (3,5-dichloropyridin-4-yl)amide] | < 0.1 |  | ≥ 90
CNc1ccc(C(=O)Nc2c(Cl)cncc2Cl)c2cc(C(F)(F)F)nn12 [Example 97, 7-Methylamino-2-trifluoromethylpyrazolo[1,5-a]pyridine-4-carboxylic acid (3,5-dichloropyridin-4-yl)amide] | < 0.1 |  | 
CC(=O)c1ccc(C(=O)Nc2c(Cl)cncc2Cl)c2cc(C(F)(F)F)nn12 [Example 108, 7-Acetyl-2-trifluoromethylpyrazolo[1,5-a]pyridine-4-carboxylic acid (3,5-dichloropyridin-4-yl)amide] | < 0.1 |  | 
COCc1ccc(C(=O)Nc2c(Cl)cncc2Cl)c2cc(C(F)(F)F)nn12 [Example 115, 7-Methoxymethyl-2-trifluoromethylpyrazolo[1,5-a]pyridine-4-carboxylic acid (3,5-dichloropyridin-4-yl)amide] | < 0.1 |  | 
COc1ccc(C(=O)Nc2c(Cl)cncc2Cl)c2c(Cl)c(C(F)(F)F)nn12 [Example 118, 3-Chloro-7-methoxy-2-trifluoromethylpyrazolo[1,5-a]pyridine-4-carboxylic acid (3,5-dichloropyridin-4-yl)amide] | < 0.1 |  | 
COc1ccc(C(=O)Nc2c(Cl)cncc2Cl)c2c(O)c(C(F)(F)F)nn12 [Example 119, 3-Hydroxy-7-methoxy-2-trifluoromethylpyrazolo[1,5-a]pyridine-4-carboxylic acid (3,5-dichloropyridin-4-yl)amide] | 0.1 to 10 |  | 

Further lines, with some results ahead:

IC50 [2] [µmol/L] | Compound | inhibition in vivo at 0.3 mg/kg [1] [%] | inhibition in vivo at 0.1 mg/kg [1] [%]
< 0.1 | CCc1cc2c(C(=O)Nc3c(Cl)c[n+]([O-])cc3Cl)ccc(OC)n2n1 [Example 11, 2-Ethyl-7-methoxypyrazolo[1,5-a]pyridine-4-carboxylic acid (3,5-dichloto-1-oxypyridin-4-yl)amide] | 70 to 90 | 
< 0.1 | COc1ccc(C(=O)Nc2c(Cl)c[n+]([O-])cc2Cl)c2cc(C(F)(F)F)nn12 [Example 17, 7-Methoxy-2-trifluoromethylpyrazolo[1,5-a]pyridine-4-carboxylic acid (3,5-dichloro-1-oxypyridin-4-yl)amide] |  | 30 to 70
< 0.1 | COc1ccc(C(=O)Nc2c(Cl)cncc2Cl)c2cc(C3CC3)nn12 [Example 24, 2-Cyclopropyl-7-methoxypyrazolo[1,5-a]pyridine-4-carboxylic acid (3,5-dichloropyridin-4-yl)amide] |  | ≥ 90
< 0.1 | COc1ccc(C(=O)Nc2c(Cl)c[n+](O)cc2Cl)c2cc(C3CC3)nn12 [Example 25, 2-Cyclopropyl-7-methoxypyrazolo[1,5-a]pyridine-4-carboxylic acid (3,5-dichloro-1-oxypyridin-4-yl)amide] | ≥ 90 | 
< 0.1 | COc1ccc(C(=O)Nc2c(Cl)c[n+](O)cc2Cl)c2cc(C(C)C)nn12 [Example 33, 2-Isopropyl-7-methoxypyrazolo[1,5-a]pyridine-4-carboxylic acid (3,5-dichloro-1-oxypyridin-4-yl)amide] |  | ≥ 90
< 0.1 | COc1ccc(C(=O)Nc2c(Cl)cncc2Cl)c2ccnn12 [Example 40, 7-Methoxypyrazolo[1,5-a]pyridine-4-carboxylic acid (3,5-dichloropyridin-4-yl)amide] | 70 to 90 | 
< 0.1 | COc1ccc(C(=O)Nc2c(Cl)c[n+]([O-])cc2Cl)c2ccnn12 [Example 41, 7-Methoxypyrazolo[1,5-a]pyridine-4-carboxylic acid (3,5-dichloro-1-oxypyridin-4-yl)amide] | 30 to 70 | 
< 0.1 | COc1ccc(C(=O)Nc2c(Cl)cncc2Cl)c2cc(C(F)F)nn12 [Example 58, 2-Difluoromethyl-7-methoxy-pyrazolo[1,5-a]pyridine-4-carboxylic acid (3,5-dichloropyridin-4-yl)amide] |  | ≥ 90
< 0.1 | CCOc1ccc(C(=O)Nc2c(Cl)cncc2Cl)c2cc(C(F)F)nn12 [Example 59, 2-Difluoromethyl-7-ethoxypyrazolo[1,5-a]pyridine-4-carboxylic acid (3,5-dichloropyridin-4-yl)amide] |  | 
< 0.1 | COc1ccc(C(=O)Nc2c(Cl)c[n+](O)cc2Cl)c2cc(C#N)nn12 [Example 71, 2-Cyano-7-methoxypyrazolo[1,5-a]pyridine-4-carboxylic acid (3,5-dichloro-1-oxypyridin-4-yl)amide] |  | 
< 0.1 | COCc1cc2c(C(=O)Nc3c(Cl)cncc3Cl)ccc(OC)n2n1 [Example 76, 7-Methoxy-2-methoxymethylpyrazolo[1,5-a]pyridine-4-carboxylic acid (3,5-dichloropyridin-4-yl)amide] |  | 70 to 90
< 0.1 | COCc1cc2c(C(=O)Nc3c(Cl)c[n+](O)cc3Cl)ccc(OC)n2n1 [Example 77, 7-Methoxy-2-methoxymethylpyrazolo[1,5-a]pyridine-4-carboxylic acid (3,5-dichloro-1-oxypyridin-4-yl)amide] | 30 to 70 | 
